Data taken from patent publication US12655461B2 (priority 2020, dated 2026).

Key:
[1] = system: lac promoter in BL21 cells (pEC-GFP); test: IPTG induction of GFP from lac promoter (pEC-GFP) in BL21 cells; type: cell-based, E. coli; conditions: 0.01 mM and 0.1 mM IPTG, 24 hours
[2] = system: synthetic cyn promoter (pCyn-v2-GFP) in E. coli BW25113-Wt
E. coli cells = conditions: LB media, 37° C., OD600
[3] = system: cyn promoter/operator regulated by cynR (pCyn-v1-GFP); test: GFP expression from pCyn-v1-GFP (native cyn promoter) induced with cyanate or azide, flow cytometry and bulk lysate fluorescence; type: cell-based, E. coli; conditions: 1 mM inducer

## CC(C)S[C@@H]1O[C@H](CO)[C@H](O)[C@H](O)[C@H]1O [IPTG]
[1]
  GFP expression at lower inducer concentrations over time: GFP expression increased with time and reached maximum after 24 hours

## [N-]=[N+]=[N-] [sodium azide]
[2]
  azide concentration until which GFP expression increased: 1 mM
  detection limit of the synthetic promoter for azide: > 10 µM
E. coli cells
  azide amount showing dramatic influence on the growth of the cells: > 5 mM

## N#CO [sodium cyanate]
[3]; BW25113 wildtype, 19 hours, flow cytometry
  GFP fluorescence of induced cells compared to uninduced control: did not result in any GFP expression
[3]; ΔcynS strain (BW25113-sCB1)
  GFP expression of induced cells: recovered the GFP expression
